How the values were obtained:
[1] = tested on: Primary bovine lens epithelial cells; assay: Primary bovine lens epithelial cells on the lens capsule, serum-free, continuous exposure: cell number and morphology; type: cell-based
Description: Primary bovine lens epithelial cells were cultured in serum-free conditions, survival factors being released from the lens capsule. Paclitaxel or combretastatin A-4 phosphate was added to the culture to a final concentration of 10 nM, 100 nM or 10 μM. Cell number was determined for each capsule at 48 h and 96 h after addition of the test agent. Two capsules were taken per treatment and cell numbers averaged after being expressed as a percentage of 48 h value. This indicates the increase/decrease in cell number within a 48 h time period (i.e. from 48 h to 96 h), normalized as a percentage. Independent T-test P value between CA4P control and 10 μM is 0.0002.
By light microscopy, CA4P has a dramatic effect upon cell morphology, retaining the cobblestone characteristic of the lens epithelium, when in the control cultures the lens cells have begun to trans-differentiate actinsm/desmin positive cells and migrate off the capsule. Pictures were taken from live primary bovine cells on the lens capsule with FujiFinepix (FIG. 3).

[2] = tested on: polymerized tubulin in primary bovine lens epithelial cells; assay: Anti-tubulin immunofluorescence of primary lens epithelial cells on the lens capsule; type: cell-based; details: single 30 min treatment with 1 μM CA4P, at 30 min after start and up to 48 h after end of exposure (FIG. 5)
Excerpt: Bovine eyes were obtained from Coast and County Meat Group (Felling, UK) on the day of culling and lenses were dissected out of the eyes under a sterile tissue culture hood as described below. After generous dousing in 70% ethanol, eyes were cut open using a major surgical blade (Swann-Morton, UK) via a single cut, parallel and posterior to the cornea-conjunctiva limit. The eye was then inverted and the vitreous removed. The lens was freed from the ciliary fibers and immediately placed anterior face down in a SYLGARD-covered (Dow Corning, Germany) well of a 12-well tissue culture plate (Greiner Bio-One, UK). The posterior side of the lens capsule was cut in a Y-shape fashion by a thin scalpel and the resulting flaps pulled back and pinned onto the SYLGARD. The fiber mass was removed by gently rolling it off the anterior lens capsule, thus leaving most of the primary lens epithelial cell layer attached onto the anterior lens capsule. This primary lens epithelial cell layer was then cultured on its original lens capsule at 37° C., 5% CO2, in 0% FCS-supplemented tissue culture.
[…] Immediately after the end of the CA4P exposure and 48 h after the end of the CA4P exposure, the presence of polymerized tubulin in the primary lens epithelial cell layers was investigated by immunofluorescence. […]

[3] = tested on: Primary bovine lens epithelial cells; assay: Wound edge migration, multi-layering and EMT hallmarks of primary lens epithelial cells on the lens capsule; type: cell-based
Description: We tested CA4P as a potential inhibitor of lens epithelial cells epithelial-mesenchymal transition (EMT) during posterior capsular opacification (PCO), a common complication of cataract surgery. […] This effect persisted up to 48 h after CA4P exposure. Lens epithelial cell proliferation was also affected, as assayed by Ki67 immunofluorescence, MTT-based cell viability assays and cell cycle analysis by flow cytometry. Hallmarks of EMT, namely loss of cell polarity and migratory behavior, were also investigated in primary bovine lens epithelial cells grown on the lens capsule and were decreased by CA4P exposure, although cell multilayering seemed unaffected.
(FIG. 5). In addition, primary bovine lens epithelial cells grown on the lens capsule in serum-free conditions for 48 h move away from the wound edge.

BIE cells = assay: MTT-based viable cell number assay in BIE cells; set-up: species or system bovine; details: single 30 min treatment with 1 μM CA4P; over 72 h following treatment (FIG. 6)
Description: BMI-immortalized bovine lens epithelial cells (BIE cell line, produced in Roy Quinlan's Laboratory, University of Durham, UK), were seeded onto 12-well tissue culture plates in 10% fetal calf serum (FCS)-supplemented tissue culture medium (Sigma-Aldrich, UK) and kept at 37° C., 5% CO2 overnight. […] Viable cell number was assayed immediately and at 24 h, 48 h and 72 h after the end of exposure, using an MTT-based colorimetric assay (CellTiter95® Aqueous non-radioactive cell proliferation assay, Promega, UK), according to manufacturer's instructions. Briefly, the original cell culture medium was discarded from all wells and replaced by 500 µL of fresh medium, to which was added 100 µL of kit reagent. The wells were then returned to 37° C., 5% CO2 for 2 h 30 in the dark, after which […] were transferred from each well into a 96-well plate, which was read at 492 nm absorbance on an Anthos Lucy I (Anthos Labtech Instruments, Germany). The absorbance values were converted to cell numbers using standard curves specific to lens epithelial cells (determined in Roy Quinlan's laboratory, University of Durham, UK), and the viable cell numbers obtained were averaged with standard deviation. Significant differences in the values obtained between control and treated cells at different timepoints were assessed using an independent, two-tailed t-test.

Phosphorylated JNK = Phosphorylated JNK level; type: cell-based, bovine; details: CA4P treatment (data not shown)
Description: Phospho-Erk ½ levels were elevated immediately after the end of CA4P exposure in both control and treated cells and decreased 1 h after the end of CA4P exposure in both control and treated cells (FIG. 7). […] Therefore, it could be hypothesized that, in primary cells, a general stress response due to dissection will mask CA4P's effect on Erk phosphorylation. Phosphorylated p38 and JNK levels were not affected by CA4P treatment (data not shown).

[4] = 30 min exposure to 1 mM CA4P immediately after wounding, serum-free, 48 h (data not shown)

`COc1ccc(/C=C\c2cc(OC)c(OC)c(OC)c2)cc1OP(=O)(O)O` [CA4P, combretastatin A-4 phosphate] was tested, and the “decline in cell number, compared with paclitaxel” value ([1]; 10 nM, 100 nM or 10 μM, cell number at 48 h and 96 h, over a 96 hour exposure (FIG. 1, FIG. 2)) was “more effective than paclitaxel at inducing a decline in cell number”, the “cell morphology by light microscopy” value ([1]; CA4P 10 μM, live primary bovine cells on the lens capsule, 48 and 96 h (FIG. 3)) was “show only epithelial sheets with the typical cobblestone appearance of the lens epithelium” and the “polymerized tubulin (immunofluorescence)” value [2] was “loss of polymerized tubulin”. For the same molecule, the cell multi-layering [3, 4] was “does not prevent cell multi-layering”, the “cells moving away from the wound edge” value [3, 4] was “prevents the cells from leaving the wound edge” and the “hallmarks of EMT: loss of cell polarity and migratory behavior” value ([3]; primary bovine lens epithelial cells grown on the lens capsule) was “decreased”. The “number of BIE cells (viable cell number, MTT)” value (BIE cells) was “steady reduction in the number of BIE cells” and the “Phosphorylated JNK levels” value (Phosphorylated JNK) was “not affected”.

From patent US20120220554A1, “Combretastatins for Prevention of Posterior Capsule Opacification” (OXIGENE, INC., priority 2010, published 2012)
